Data taken from patent publication US20260167632A1, “NICOTINAMIDE DERIVATIVES FOR USE IN TREATING DISORDERS ASSOCIATED WITH KCNK13 ACTIVITY” (Cerevance, Inc., priority 2022, published 2026).

Target: T1, human KCNK13 (Homo sapiens, UniProt Q9HB14)
T1 construct: expressed in transfected cells
T1 sequence (Q9HB14 1-408): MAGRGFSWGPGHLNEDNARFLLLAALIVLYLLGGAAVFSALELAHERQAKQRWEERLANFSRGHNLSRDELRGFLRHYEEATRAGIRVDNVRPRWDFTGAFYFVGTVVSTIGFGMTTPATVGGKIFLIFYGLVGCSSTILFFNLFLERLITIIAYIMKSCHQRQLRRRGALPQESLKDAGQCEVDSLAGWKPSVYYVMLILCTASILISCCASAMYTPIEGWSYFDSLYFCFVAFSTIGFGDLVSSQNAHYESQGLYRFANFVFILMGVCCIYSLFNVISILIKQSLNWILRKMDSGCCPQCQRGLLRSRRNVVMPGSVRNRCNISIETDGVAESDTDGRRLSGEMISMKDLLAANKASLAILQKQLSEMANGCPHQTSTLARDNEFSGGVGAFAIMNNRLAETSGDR
Assay: KCNK13 antagonist activity, thallium flux FLIPR assay in HEK 293 cells stably expressing human KCNK13
Type: cell-based
Conditions: HEK 293 cells stably expressing human KCNK13, Tl+ sensitive dye, compound 15 min before thallium sulfate, ten point curves; read-out: hKCNK13 IC50
In short: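 HEK 293 cells stably expressing human KCNK13, loaded with Tl+-sensitive dye 1 h at room temperature, then exposed to compound for 15 min before thallium sulfate stimulus. Tl+ influx read by FLIPR fluorescence; IC50 from ten-point half-log curves starting at 100 µM, each point averaging two wells.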

SMILES	IC50
COc1ncc(Cl)cc1S(=O)(=O)N1CCOc2ccc(F)cc2C1 [Example 54, 4-((5-chloro-2-methoxypyridin-3-yl)sulfonyl)-7-fluoro-2,3,4,5-tetrahydrobenzo[f][1,4]oxazepine]	≤ 500 nM
O=S(=O)(c1cc(F)cnc1OC(F)F)N1CCOc2ccc(F)cc2C1 [Example 114, 4-((2-(difluoromethoxy)-5-fluoropyridin-3-yl)sulfonyl)-7-fluoro-2,3,4,5-tetrahydrobenzo[f][1,4]oxazepine]	≤ 200 nM
COc1ncc(F)cc1C(=O)N(C)C1CCOc2c(F)cccc21 (single isomer, unassigned) [Example 30, 5-fluoro-N-(8-fluorochroman-4-yl)-2-methoxy-N-methylnicotinamide]	≤ 500 nM
COc1ncccc1C(=O)N(C)Cc1ccccc1F [Example 33, N-(2-fluorobenzyl)-2-methoxy-N-methylnicotinamide]	≤ 500 nM
COc1ncc(Cl)cc1S(=O)(=O)N1CCc2ccccc2C1 [Example 52, 2-((5-chloro-2-methoxypyridin-3-yl)sulfonyl)-1,2,3,4-tetrahydroisoquinoline]	≤ 200 nM
O=S(=O)(c1cc(F)cnc1OC(F)F)N1CCc2ccc(F)cc2C1 [Example 111, 2-((2-(difluoromethoxy)-5-fluoropyridin-3-yl)sulfonyl)-7-fluoro-1,2,3,4-tetrahydroisoquinoline]	≤ 200 nM
CN(Cc1cccc(F)c1)S(=O)(=O)c1cc(F)cnc1OC(F)F [Example 112, 2-(difluoromethoxy)-5-fluoro-N-(3-fluorobenzyl)-N-methylpyridine-3-sulfonamide]	≤ 100 nM
COc1ncc(F)cc1C(=O)N1CCCCC1c1cccc(F)c1 (stereo not drawn) [Example 4, (5-fluoro-2-methoxypyridin-3-yl)(2-(3-fluorophenyl)piperidin-1-yl)methanone]	≤ 1000 nM
COc1ncc(Cl)cc1C(=O)N(C)C1CCOc2c(F)cccc21 (single isomer, unassigned) [Example 28, 5-chloro-N-(8-fluorochroman-4-yl)-2-methoxy-N-methylnicotinamide]	≤ 500 nM
CN(Cc1cccc(F)c1F)S(=O)(=O)c1cc(F)cnc1OC(F)F [Example 107, N-(2,3-difluorobenzyl)-2-(difluoromethoxy)-5-fluoro-N-methylpyridine-3-sulfonamide]	≤ 100 nM
COc1ncc(Cl)cc1C(=O)N(C)C1CCc2cccc(C#N)c21 (stereo not drawn) [Example 3, 5-chloro-N-(7-cyano-2,3-dihydro-1H-inden-1-yl)-2-methoxy-N-methylnicotinamide]	≤ 500 nM
COc1ncc(F)cc1C(=O)N(C)C1CCOc2c(F)cccc21 (single isomer, unassigned) [Example 31, 5-fluoro-N-(8-fluorochroman-4-yl)-2-methoxy-N-methylnicotinamide]	≤ 1000 nM
COc1ncc(F)cc1C(=O)N(C)C(C)c1cc(F)ccc1C#N (single isomer, unassigned) [Example 63, N-(1-(2-cyano-5-fluorophenyl)ethyl)-5-fluoro-2-methoxy-N-methylnicotinamide]	≤ 1000 nM
CC(c1cccc(F)c1)N(C)C(=O)c1cc(Cl)cnc1OC(F)F (single isomer, unassigned) [Example 86, 5-chloro-2-(difluoromethoxy)-N-(1-(3-fluorophenyl)ethyl)-N-methylnicotinamide]	≤ 100 nM
CCOc1ncc(Cl)cc1C(=O)N(C)C1CCc2ccccc21 (single isomer, unassigned) [Example 13, 5-chloro-N-(2,3-dihydro-1H-inden-1-yl)-2-ethoxy-N-methylnicotinamide]	≤ 500 nM
COc1ncc(Cl)cc1C(=O)N(C)C1COc2cc(F)ccc21 (single isomer, unassigned) [Example 46, 5-chloro-N-(6-fluoro-2,3-dihydrobenzofuran-3-yl)-2-methoxy-N-methylnicotinamide]	≤ 1000 nM
C[C@@H](c1cccc(F)c1)N(C)S(=O)(=O)c1cc(F)cnc1OC(F)F [Example 105, (S)-2-(difluoromethoxy)-5-fluoro-N-(1-(3-fluorophenyl)ethyl)-N-methylpyridine-3-sulfonamide]	≤ 1000 nM
CN(Cc1cccc(C#N)c1)S(=O)(=O)c1cc(F)cnc1OC(F)F [Example 106, N-(3-cyanobenzyl)-2-(difluoromethoxy)-5-fluoro-N-methylpyridine-3-sulfonamide]	≤ 500 nM
COc1cccc(CN(C)C(=O)c2cc(Cl)cnc2OC(F)F)c1 [Example 81, 5-chloro-2-(difluoromethoxy)-N-(3-methoxybenzyl)-N-methylnicotinamide]	≤ 200 nM
CN(C(=O)c1cc(F)cnc1OC(F)F)C1COc2c(F)cccc21 (stereo not drawn) [Example 75, 2-(difluoromethoxy)-5-fluoro-N-(7-fluoro-2,3-dihydrobenzofuran-3-yl)-N-methylnicotinamide]	≤ 500 nM
Cc1cccc(CN(C)C(=O)c2cc(Cl)cnc2OC(F)F)c1 [Example 80, 5-chloro-2-(difluoromethoxy)-N-methyl-N-(3-methylbenzyl)nicotinamide]	≤ 100 nM

Second part, the compound after the results:

IC50	SMILES
≤ 500 nM	CN(Cc1cccc(F)c1)C(=O)c1cc(C(F)(F)F)cnc1OC(F)F [Example 96, 2-(difluoromethoxy)-N-(3-fluorobenzyl)-N-methyl-5-(trifluoromethyl)nicotinamide]
≤ 100 nM	CN(Cc1cccc(Cl)c1)C(=O)c1cc(Cl)cnc1OC(F)F [Example 84, 5-chloro-N-(3-chlorobenzyl)-2-(difluoromethoxy)-N-methylnicotinamide]
≤ 100 nM	CC(c1ccccc1F)N(C)C(=O)c1cc(F)cnc1OC(F)F (single isomer, unassigned) [Example 71, 2-(difluoromethoxy)-5-fluoro-N-(1-(2-fluorophenyl)ethyl)-N-methylnicotinamide]
≤ 200 nM	COc1ncc(F)cc1C(=O)N(C)Cc1cccc(F)c1 [Example 50, 5-fluoro-N-(3-fluorobenzyl)-2-methoxy-N-methylnicotinamide]
≤ 200 nM	N#Cc1cc(F)ccc1S(=O)(=O)N1CCOc2ccc(F)cc2C1 [Example 120, 5-fluoro-2-((7-fluoro-2,3-dihydrobenzo[f][1,4]oxazepin-4(5H)-yl)sulfonyl)benzonitrile]
≤ 100 nM	CN(Cc1cccc(F)c1)C(=O)c1cc(Cl)cnc1OC(F)F [Example 101, 5-chloro-2-(difluoromethoxy)-N-(3-fluorobenzyl)-N-methylnicotinamide]
≤ 100 nM	O=S(=O)(c1cc(F)cnc1OC(F)F)N1CCc2ccccc2C1 [Example 110, 2-((2-(difluoromethoxy)-5-fluoropyridin-3-yl)sulfonyl)-1,2,3,4-tetrahydroisoquinoline]
≤ 1000 nM	COc1ncc(Cl)cc1C(=O)N(C)C1CCc2ccc(C#N)cc21 (stereo not drawn) [Example 2, 5-chloro-N-(6-cyano-2,3-dihydro-1H-inden-1-yl)-2-methoxy-N-methylnicotinamide]
≤ 500 nM	COc1ncc(Cl)cc1C(=O)N(C)C1COc2ccccc21 (single isomer, unassigned) [Example 25, 5-chloro-N-(2,3-dihydrobenzofuran-3-yl)-2-methoxy-N-methylnicotinamide]
≤ 500 nM	COC(=O)c1ccc(F)cc1CN(C)C(=O)c1cc(F)cnc1OC [Example 56, methyl 4-fluoro-2-((5-fluoro-2-methoxy-N-methylnicotinamido)methyl)benzoate]
≤ 500 nM	COc1ncc(Cl)cc1C(=O)N(C)C1CCc2ccccc21 (single isomer, unassigned) [Example 23, 5-chloro-N-(2,3-dihydro-1H-inden-1-yl)-2-methoxy-N-methylnicotinamide]
≤ 200 nM	COc1ncc(F)cc1C(=O)N(C)C(C)c1cccc(F)c1 (single isomer, unassigned) [Example 7, 5-fluoro-N-(1-(3-fluorophenyl)ethyl)-2-methoxy-N-methylnicotinamide]
≤ 1000 nM	COc1ncc(Cl)cc1C(=O)N(C)Cc1ccc(F)cc1C(F)(F)F [Example 57, 5-chloro-N-(4-fluoro-2-(trifluoromethyl)benzyl)-2-methoxy-N-methylnicotinamide]
≤ 5000 nM	COc1ncc(F)cc1C(=O)N(C)C(C)c1ccc(F)cc1C#N (single isomer, unassigned) [Example 64, N-(1-(2-cyano-4-fluorophenyl)ethyl)-5-fluoro-2-methoxy-N-methylnicotinamide]
≤ 500 nM	COc1ncc(C)cc1S(=O)(=O)N1CCOc2ccc(F)cc2C1 [Example 53, 7-fluoro-4-((2-methoxy-5-methylpyridin-3-yl)sulfonyl)-2,3,4,5-tetrahydrobenzo[f][1,4]oxazepine]
≤ 200 nM	CC(c1ccccc1F)N(C)C(=O)c1cc(F)cnc1OC(F)F (single isomer, unassigned) [Example 70, 2-(difluoromethoxy)-5-fluoro-N-(1-(2-fluorophenyl)ethyl)-N-methylnicotinamide]
≤ 200 nM	COc1ncc(Cl)cc1C(=O)N(C)C1CCc2ccc(F)cc21 (single isomer, unassigned) [Example 21, 5-chloro-N-(6-fluoro-2,3-dihydro-1H-inden-1-yl)-2-methoxy-N-methylnicotinamide]
≤ 1000 nM	COc1ncc(Cl)cc1C(=O)N(C)C1CCOc2cc(F)ccc21 (stereo not drawn) [Example 43, 5-chloro-N-(7-fluorochroman-4-yl)-2-methoxy-N-methylnicotinamide]
